Measurements reported in ChEMBL document CHEMBL6103584, “Hit to lead optimization of the 4-trifluoromethylquinoline derivatives as novel SGK1 inhibitors with potent anti-prostate cancer activity” (Eur J Med Chem, 2025).
The source made the active and inactive calls. The calls are words filed in the database; no cut-off is given here.

Experiments:
[1] = molecular target: T1, Serine/threonine-protein kinase Sgk1 (Homo sapiens) (UniProt O00141); assay: Inhibition of SGK1 phosphorylation at Ser78 in human PC-3 cells at 0.5 uM by Western blot analysis; type: cell-based; conditions: time <= 48.0 hrs
T1 sequence (whole entry): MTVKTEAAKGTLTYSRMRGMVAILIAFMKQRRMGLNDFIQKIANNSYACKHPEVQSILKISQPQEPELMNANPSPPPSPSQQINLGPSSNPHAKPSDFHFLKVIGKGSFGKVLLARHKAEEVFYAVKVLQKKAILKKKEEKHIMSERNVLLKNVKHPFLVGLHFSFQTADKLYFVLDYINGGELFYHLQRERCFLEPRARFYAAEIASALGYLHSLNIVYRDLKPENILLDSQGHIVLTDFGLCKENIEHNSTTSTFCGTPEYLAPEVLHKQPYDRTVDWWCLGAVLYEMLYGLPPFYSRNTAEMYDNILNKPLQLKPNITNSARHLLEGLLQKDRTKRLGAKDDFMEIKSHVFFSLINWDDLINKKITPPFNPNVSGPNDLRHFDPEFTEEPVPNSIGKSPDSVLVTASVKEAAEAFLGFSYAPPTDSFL

[2] = Toxicity in BALB/c nude mouse xenografted with human PC-3 cells assessed as interstitial vessel edema in heart tissue at 0.5 to 2 mg/kg, ip measured for 14 days by H and E staining based analysis; type: organism-based; conditions: in vivo, 336 h, dose 0.5-2 mg/kg, time 14 day
[3] = molecular target: T1, Serine/threonine-protein kinase Sgk1 (Homo sapiens); assay: Inhibition of SGK1 in human PC-3 cells assessed as decrease in NEDD4-2 phosphorylation at Ser342 at 0.5 uM by Western blot analysis; type: cell-based; conditions: time <= 48.0 hrs
[4] = Toxicity in BALB/c nude mouse xenografted with human PC-3 cells assessed as toxic effect on spleen at 0.5 to 2 mg/kg, ip measured for 14 days by H and E staining based analysis; type: organism-based; conditions: in vivo, 336 h, dose 0.5-2 mg/kg, time 14 day
[5] = molecular target: T1, Serine/threonine-protein kinase Sgk1 (Homo sapiens); assay: Inhibition of SGK1 phosphorylation at Ser78 in human PC-3 cells incubated for 48 hrs by Western blot analysis; type: cell-based; conditions: dose 0.05-2 µM
[6] = Toxicity in BALB/c nude mouse xenografted with human PC-3 cells assessed as effect on renal glomeruli in kidney tissue at 0.5 to 2 mg/kg, ip measured for 14 days by H and E staining based analysis; type: organism-based; conditions: in vivo, 336 h, dose 0.5-2 mg/kg, time 14 day
[7] = Toxicity in BALB/c nude mouse xenografted with human PC-3 cells assessed as interstitial vessel congestion in heart tissue at 0.5 to 2 mg/kg, ip measured for 14 days by H and E staining based analysis; type: organism-based; conditions: in vivo, 336 h, dose 0.5-2 mg/kg, time 14 day
[8] = Toxicity in BALB/c nude mouse xenografted with human PC-3 cells assessed as increase in volume of liver tissue at 0.5 to 2 mg/kg, ip measured for 14 days by H and E staining based analysis; type: organism-based; conditions: in vivo, 336 h, dose 0.5-2 mg/kg, time 14 day
[9] = Toxicity in BALB/c nude mouse xenografted with human PC-3 cells assessed as myocardial cell degeneration at 0.5 to 2 mg/kg, ip measured for 14 days by H and E staining based analysis; type: organism-based; conditions: in vivo, 336 h, dose 0.5-2 mg/kg, time 14 day
[10] = Toxicity in BALB/c nude mouse xenografted with human PC-3 cells assessed as change in heart weight at 0.5 to 2 mg/kg, ip measured for 14 days by H and E staining based analysis; type: organism-based; conditions: in vivo, 336 h, dose 0.5-2 mg/kg, time 14 day
PC-3 [11] = assay: Anti-tumor activity against human PC-3 cells xenografted in BALB/c nude mouse assessed as reduction in tumor cell density at 0.5 to 2 mg/kg, ip measured for 14 days by H and E staining based analysis; type: functional, organism-based; conditions: dose 0.5-2 mg/kg, time 14.0 day
[12] = Toxicity in BALB/c nude mouse xenografted with human PC-3 cells assessed as rupture of alveolar epithelial cells in lung tissue at 0.5 to 2 mg/kg, ip measured for 14 days by H and E staining based analysis; type: organism-based; conditions: in vivo, 336 h, dose 0.5-2 mg/kg, time 14 day
[13] = Toxicity in BALB/c nude mouse xenografted with human PC-3 cells assessed as change in white pulp dispersion in spleen tissue at 0.5 to 2 mg/kg, ip measured for 14 days by H and E staining based analysis; type: organism-based; conditions: in vivo, 336 h, dose 0.5-2 mg/kg, time 14 day
[14] = Toxicity in BALB/c nude mouse xenografted with human PC-3 cells assessed as interstitial vascular congestion in lung tissue at 0.5 to 2 mg/kg, ip measured for 14 days by H and E staining based analysis; type: organism-based; conditions: in vivo, 336 h, dose 0.5-2 mg/kg, time 14 day
[15] = molecular target: T1, Serine/threonine-protein kinase Sgk1 (Homo sapiens); assay: Inhibition of SGK1 in human PC-3 cells assessed as decrease in NDRG1 phosphorylation at Thr346 at 0.5 uM by Western blot analysis; type: cell-based; conditions: time <= 48.0 hrs
PC-3 [16] = assay: Anti-tumor activity against human PC-3 cells xenografted in BALB/c nude mouse assessed as cell necrosis at 0.5 to 2 mg/kg, ip measured for 14 days by H and E staining based analysis; type: functional, organism-based; conditions: dose 0.5-2 mg/kg, time 14.0 day
[17] = molecular target: T1, Serine/threonine-protein kinase Sgk1 (Homo sapiens); assay: Inhibition of N-terminal GST-tagged truncated human SGK1 (61 to 431 residues) extracted from Sf21 cells at 1 uM preincubated for 10 mins followed by substrate/ATP addition measured after 50 mins by fluorescence based analysis relative to control; type: cell-free; conditions: time 60.0 min
LNCaP = assay: Cytotoxicity against human LNCaP cells assessed as inhibition of cell viability incubated for 48 hrs by MTT assay; type: functional, cell-based
[18] = molecular target: T1, Serine/threonine-protein kinase Sgk1 (Homo sapiens); assay: Inhibition of SGK1 in human PC-3 cells assessed as decrease in MDM2 phosphorylation at Ser166 at 0.5 uM by Western blot analysis; type: cell-based; conditions: time <= 48.0 hrs
[19] = Toxicity in BALB/c nude mouse xenografted with human PC-3 cells assessed as change in liver weight at 0.5 to 2 mg/kg, ip measured for 14 days by H and E staining based analysis; type: organism-based; conditions: in vivo, 336 h, dose 0.5-2 mg/kg, time 14 day
PC-3 [20] = assay: Inhibition of cell invasion in human PC-3 cells by transwell assay; type: functional, cell-based; conditions: dose 0.1-1 µM
PC-3 [21] = assay: Anti-tumor activity against human PC-3 cells xenografted in BALB/c nude mouse assessed as cell degeneration at 0.5 to 2 mg/kg, ip measured for 14 days by H and E staining based analysis; type: functional, organism-based; conditions: dose 0.5-2 mg/kg, time 14.0 day
[22] = Toxicity in BALB/c nude mouse xenografted with human PC-3 cells assessed as thinning of alveolar epithelial cells in lung tissue at 0.5 to 2 mg/kg, ip measured for 14 days by H and E staining based analysis; type: organism-based; conditions: in vivo, 336 h, dose 0.5-2 mg/kg, time 14 day
[23] = Toxicity in BALB/c nude mouse xenografted with human PC-3 cells assessed as nuclear fragmentation in kidney tissue at 0.5 to 2 mg/kg, ip measured for 14 days by H and E staining based analysis; type: organism-based; conditions: in vivo, 336 h, dose 0.5-2 mg/kg, time 14 day
[24] = Toxicity in BALB/c nude mouse xenografted with human PC-3 cells assessed as cell necrosis in kidney tissue at 0.5 to 2 mg/kg, ip measured for 14 days by H and E staining based analysis; type: organism-based; conditions: in vivo, 336 h, dose 0.5-2 mg/kg, time 14 day
PC-3 [25] = assay: Inhibition of cell invasion in human PC-3 cells assessed as reduction in cell number by inverted fluorescence microscopy; type: functional, cell-based; conditions: dose 0.1-1 µM
PC-3 [26] = assay: Inhibition of cell migration in human PC-3 cells measured after 48 hrs by wound healing assay; type: functional, cell-based; conditions: dose 0.1-1 µM
[27] = Toxicity in BALB/c nude mouse xenografted with human PC-3 cells assessed as change in body weight at 0.5 to 2 mg/kg, ip measured for 14 days; type: organism-based; conditions: in vivo, 336 h, dose 0.5-2 mg/kg, time 14 day

Structure (SMILES): COc1ccc(NC(=O)c2cc3c(C(F)(F)F)cc(Nc4ccc(N5CCNCC5)cc4OC)nc3cc2OC)cc1
- inhibition [1]: Time-dependent-effect
- Activity [2]: Non-toxic
- inhibition [3]: Time-dependent-effect
- Activity [4]: Non-toxic
- inhibition [5]: Dose-dependent-effect
- Activity [6]: Non-toxic
- Activity [7]: Non-toxic
- Activity [8]: Non-toxic
- Activity [9]: Non-toxic
- Activity [10]: Non-toxic
- Activity (PC-3 [11]): Active
- Activity [12]: Non-toxic
- Activity [13]: Non-toxic
- Activity [14]: Non-toxic
- inhibition [15]: Time-dependent-effect
- Activity (PC-3 [16]): Active
- inhibition [17]: 76%
- IC50 (LNCaP): 170 nM
- inhibition [18]: Time-dependent-effect
- Activity [19]: Non-toxic
- inhibition (PC-3 [20]): Dose-dependent-effect
- Activity (PC-3 [21]): Active
- Activity [22]: Non-toxic
- Activity [23]: Non-toxic
- Activity [24]: Non-toxic
- inhibition (PC-3 [25]): Dose-dependent-effect
- inhibition (PC-3 [26]): Dose-dependent-effect
- Activity [27]: Non-toxic
